Data on one molecule can be found in patent US7232912B2, “Indazole compounds, pharmaceutical compositions, and methods for mediating or inhibiting cell proliferation” (Agouron Pharmaceuticals, Inc., priority 2000, dated 2007).

In experiment [1] the target is T1, VEGF-R2 (Homo sapiens, UniProt P35968, DEL940-989/E990V).
T1 construct: VEGF-R2Δ50 contains residues 806–939 and 990–1171; made in house; host or cells: baculovirus/insect cells
The experiment can be described thus: VEGF-R2 Assay (coupled spectrophotometric FLVK-P / ELISA). In kind it is biochemical. Particulars: read-out: VEGF % Inhib. at 1 μM. From the text:
VEGF-R2 Construct for Assay
This construct determines the ability of a test compound to inhibit tyrosine kinase activity. A construct (VEGF-R2Δ50) of the cytosolic domain of human vascular endothelial growth factor receptor 2 (VEGF-R2) lacking the 50 central residues of the 68 residues of the kinase insert domain was expressed in a baculovirus/insect cell system. Of the 1356 residues of full-length VEGF-R2, VEGF-R2Δ50 contains residues 806–939 and 990–1171, and also one point mutation (E990V) within the kinase insert domain relative to wild-type VEGF-R2. […] See Parast et al., Biochemistry, 37,16788–16801 (1998).
Coupled Spectrophotometric (FLVK-P) Assay
The production of ADP from ATP that accompanies phosphoryl transfer was coupled to oxidation of NADH using phosphoenolpyruvate (PEP) and a system having pyruvate kinase (PK) and lactic dehydrogenase (LDH). The oxidation of NADH was monitored by following the decrease of absorbance at 340 nm (e340=6.22 cm^1 mM^−1) using a Beckman DU 650 spectrophotometer. Assay conditions for phosphorylated VEGF-R2A50 (indicated as FLVK-P in the tables below) were the following: 1 mM PEP; 250 μM NADH; 50 units of LDH/mL; 20 units of PK/mL; 5 mM DTT; 5.1 mM poly(E4Y1); 1 mM ATP; and 25 mM MgCl2 in 200 mM Hepes, pH 7.5. Assay conditions for unphosphorylated VEGF-R2A50 (indicated as FLVK in the tables) were the following: 1 mM PEP; 250 μM NADH; 50 units of LDH/mL; 20 units of PK/mL; 5 mM DTT; 20 mM poly(E4Y1); 3 mM ATP; and 60 mM MgCl2 and 2 mM MnCl2 in 200 mM Hepes, pH 7.5. Assays were initiated with 5 to 40 nM of enzyme. Ki values were determined by measuring enzyme activity in the presence of varying concentrations of test compounds. The data were analyzed using Enzyme Kinetic and Kaleidagraph software.
Formation of phosphogastrin was monitored using biotinylated gastrin peptide (1–17) as substrate. Biotinylated phosphogastrin was immobilized using streptavidin coated 96-well microtiter plates followed by detection using anti-phosphotyrosine-antibody conjugated to horseradish peroxidase. The activity of horseradish peroxidase was monitored using 2,2′-azino-di-[3-ethylbenzathiazoline sulfonate(6)] diammonium salt (ABTS). Typical assay solutions contained: 2 μM biotinylated gastrin peptide; 5 mM DTT; 20 μM ATP; 26 mM MgCl2; and 2 mM MnCl2 in 200 mM Hepes, pH 7.5. The assay was initiated with 0.8 nM of phosphorylated VEGF-R2Δ50. Horseradish peroxidase activity was assayed using ABTS, 10 mM. The horseradish peroxidase reaction was quenched by addition of acid (H2SO4), followed by absorbance reading at 405 nm. Ki values were determined by measuring enzyme activity in the presence of varying concentrations of test compounds. The data were analyzed using Enzyme Kinetic and Kaleidagraph software.
Background: An ELISA detects its analyte on a solid surface through an enzyme-linked reagent.

For experiment [2], the system named is HCT 116 cell line. Kind of experiment: Inhibition of Cell Growth (MTT tetrazolium salt assay). In kind it is cell-based. Particulars: Homo sapiens, HCT 116, MTT. Put shortly:
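HCT 116 cells in McCoy's 5A were dosed 4 h after plating, in 0.5% (v/v) DMSO, then held 4–6 days at 37 °C, 5% CO2. MTT at 0.2 mg/mL final for 4 h; DMSO-solubilized formazan read at 540 nm. IC50 taken from the linear part of a semi-log plot versus DMSO-only controls.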
(In general: Tetrazolium dyes change colour on reduction, which living cells bring about.)

T1 sequence (P35968 with tags, fused parts or gaps DEL940-989/E990V limits assumed): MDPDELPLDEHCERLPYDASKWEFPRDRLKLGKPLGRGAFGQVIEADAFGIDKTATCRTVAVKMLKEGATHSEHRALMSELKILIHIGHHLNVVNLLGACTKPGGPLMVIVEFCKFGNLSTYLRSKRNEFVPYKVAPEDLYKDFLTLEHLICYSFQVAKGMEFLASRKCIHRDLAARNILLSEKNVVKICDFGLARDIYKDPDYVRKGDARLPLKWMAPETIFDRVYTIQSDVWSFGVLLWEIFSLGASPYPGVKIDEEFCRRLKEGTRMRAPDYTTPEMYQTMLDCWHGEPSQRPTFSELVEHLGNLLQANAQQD

Turning to `CCc1c(-c2ccncc2)cncc1-c1ccc2[nH]nc(-c3nc4ccccc4[nH]3)c2c1` [Example 61, 5-[3-(1H-Benzoimidazol-2yl)-1H-indazol-5-yl]-4ethyl-[3,4′]bipyridinyl], in experiment [1], the inhibition at 1 µM is 18%. In experiment [2] (50% inhibition of growth, read-out: HCT 116 IC50), the IC50 came out at 0.22 µM. Also, in experiment [2] (IC90, read-out: HCT 116 IC90), the 90% effect concentration (IC90) stood at 0.5 µM.

The term IC50 denotes the concentration that inhibits the measured activity by half. The term IC90 denotes the point of the concentration-response curve where the effect stands at 90%.
